Data reported in patent US20250237628A1, “CELL SELECTION AND/OR STIMULATION DEVICES AND METHODS OF USE” (Juno Therapeutics GmbH, priority 2019, published 2025).

What was measured:
CD4+ and CD8+ T cells [1] = assay: Viable cells in engineered T cell composition over the process; type: cell-based, human; details: presence vs absence of compound 63 in the process
Experimental: (§1) CD4+ and CD8+ T cells were isolated by immunoaffinity-based enrichment from leukapheresis samples from human donor subjects. […] The T cells cultured with our without Compound 63 were incubated overnight (approximately 24 hr) at 37° C., and were then transduced in serum-free culture media with our without Compound 63 ([…]) with a lentiviral vector encoding an anti-CD19 CAR. […] Following transduction, the cells were incubated in serum free media without recombinant cytokines (basal media) and with or without Compound 63 (1 mM) and allowed to incubate at about 37.0° C. in an incubator for up to 96 hours after initiation of the stimulation with the anti-CD3/anti-CD28 oligomeric stimulatory reagent (until day 5 of the process). […] The cryofrozen engineered CD4+ and CD8+ T cells were thawed, and T cells were assessed for intracellular S6 phosphorylation, a ribosomal protein and marker of mTOR inhibition, and co-stained for surface expression of CD4 or CD8 and for CCR7 and CD45RA as markers of memory subsets. pS6 expression in live CD8+ T cells by memory subsets was shown by the expression of CCR7 and CD45RA as shown in FIG. 16A. As shown, incubation with Compound 63 decreased the mean fluorescence intensity of stimulated memory T cell subsets, […], indicating an inhibition of mTOR, while having no significant effect on the percentage or total number of viable cells over time.

anti-CD19 CAR T cells = assay: Long-term stimulation over 12 days with anti-idiotype antibody beads, expansion and survival; type: cell-based, human; details: anti-ID beads, cells produced in presence vs absence of compound 63
Experimental: CD4+ and CD8+ T cells were isolated by immunoaffinity-based enrichment from leukapheresis samples from human donor subjects. At day 1, isolated CD4+ and CD8+ T cells were mixed 1:1 and stimulated with an anti-CD3/anti-CD28 oligomeric stimulatory reagent generated as described in Example 1 in serum-free media supplemented with recombinant IL-2 (100 IU/mL), recombinant IL-7 (600 IU/mL), and recombinant IL-15 (100 IU/mL) with or without 1 μM of 2-(3-hydroxyphenyl)-9-(2-isopropylphenyl)-8-oxo-8,9-dihydro-7H-purine-6-carboxamide (Compound 63). The T cells cultured with our without Compound 63 were incubated overnight (approximately 24 hr) at 37° C., and were then transduced in serum-free culture media with our without Compound 63 ([…]) with a lentiviral vector encoding an anti-CD19 CAR. The CAR contained an scFv antigen-binding domain specific for CD19 (derived from FMC63), a CD28 transmembrane region, a 4-1BB costimulatory signaling region, and a CD3-zeta derived intracellular signaling domain. […]
To further assess the functional activity of the cells, the generated T cell compositions were stimulated long-term over 12 days with beads conjugated with an anti-idiotype (ID) antibody against the anti-CD19 CAR, and expansion and survival of the cells were monitored (FIG. 17F, left panel) and total expansion metric calculated by area under the growth curve (FIG. 17F, right panel, AUC).

mTOR = assay: Intracellular S6 phosphorylation (marker of mTOR inhibition) in engineered T cells; type: cell-based, human; details: live CD8+ T cells, Temra, Tem subsets; cells produced with vs without Compound 63
Experimental: as §1

CD4+ and CD8+ T cells [2] = assay: Intracellular cytokines following stimulation with PMA/Ionomycin and a Golgi inhibitor; type: cell-based, human; details: engineered CD8+ and CD4+ T cells produced in presence of Compound 63
CD4+ and CD8+ T cells [3] = assay: Surface expression of CD27 and CCR7 by flow cytometry (phenotypic subset profile); type: cell-based, human; details: thawed
CAR-T cells = assay: Intracellular caspase expression (marker of apoptosis) in thawed CAR-T cells; type: cell-based, human; details: incubated with vs without compound 63
[4] = molecular target: Strep-Tactin® (mutein streptavidin, e.g. SEQ ID NO: 4) (Streptomyces avidinii, UniProt P22629, E68V/S69T/V71R); details: background statement, no experiment described; read-out: KD of binding to Strep-Tactin®; cited from earlier work
Strep-Tactin® (mutein streptavidin, e.g. SEQ ID NO: 4), sequence (P22629 other isoform, or with tags, fused parts or gaps E68V/S69T/V71R): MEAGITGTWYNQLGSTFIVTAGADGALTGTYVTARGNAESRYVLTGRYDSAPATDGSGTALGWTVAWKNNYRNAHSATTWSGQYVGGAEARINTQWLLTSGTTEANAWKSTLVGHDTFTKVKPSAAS

Molecule	percent viable cells (CD4+ and CD8+ T cells [1])	total live cells (CD4+ and CD8+ T cells [1])	function (expansion) following long-term CAR-specific stimulation (anti-CD19 CAR T cells)	mean fluorescence intensity of pS6 in memory T cell subsets (mTOR)	level of intracellular cytokines IL2, IFNg, or TNF (CD4+ and CD8+ T cells [2])	phenotypic subset profile by CD27 and/or CCR7 expression (CD4+ and CD8+ T cells [3])	intracellular caspase expression (CAR-T cells)	Kd [4]
CC(C)c1ccccc1-n1c(=O)[nH]c2c(C(N)=O)nc(-c3cccc(O)c3)nc21 [Compound 63, 2-(3-hydroxyphenyl)-9-(2-isopropylphenyl)-8-oxo-8,9-dihydro-7H-purine-6-carboxamide]	did not impact	did not impact	improved function	decreased	substantially improved	did not substantially alter	less intracellular caspase expression	–
WSHPQFEK [Strep-Tag® II]	–	–	–	–	–	–	–	~1000 nM
